Assay: Franz diffusion cell permeability of GI tissue exposed to ultrasound, scintigraphy of tissue and receiver chamber
Conditions: 1-MHz, 1.4 W/cm^2; 5 min ultrasound + 55 min passive diffusion vs 30 min + 30 min

inulin
transport into or across the tissue, effect of irradiation profile: the longer irradiation time was more effective

— patent US20140228715A1, “Method and Apparatus for Delivering a Substance” (The General Hospital Corporation, priority 2011, published 2014)
